Assay results as given in patent publication US10508120B2, “TYK2 inhibitors and uses thereof” (Nimbus Lakshmi, Inc., priority 2017, dated 2019).

Columns and labels:
[1] = target: JAK2 kinase domain (JH1) (Homo sapiens (Human), UniProt O60674); experiment: JAK2 Radioactive Kinase Assay; type: biochemical; settings: for inhibition at 10 µM: read-out: JAK2 JH1% Inhibition @ 10 μM
Description: (§1) The Tyk2 and JAK2 radioactive kinase assay measures the percent inhibition at the Tyk2 kinase domain (DH1) and the percent inhibition at the JAK2 kinase domain (JH1). Results of the assay are expressed as percent inhibition at 10 μM.

[2] = target: Tyk2 kinase domain (DH1) (Homo sapiens (Human), UniProt P29597); experiment: Tyk2 Radioactive Kinase Assay; type: biochemical
Chain of Tyk2 kinase domain (DH1) (P29597 897-1176): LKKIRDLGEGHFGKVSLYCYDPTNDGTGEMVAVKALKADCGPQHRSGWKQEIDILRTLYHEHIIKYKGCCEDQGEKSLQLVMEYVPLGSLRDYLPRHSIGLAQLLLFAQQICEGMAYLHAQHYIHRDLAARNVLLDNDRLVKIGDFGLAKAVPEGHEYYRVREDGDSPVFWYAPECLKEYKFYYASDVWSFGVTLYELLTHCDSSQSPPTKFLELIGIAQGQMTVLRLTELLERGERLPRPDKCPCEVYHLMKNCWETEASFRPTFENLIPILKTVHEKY
Description: as §1

[3] = target: human TYK2 (JH2domain-pseudokinase) (Homo sapiens (Human), UniProt P29597); experiment: TYK2 JH2 Domain Binding Assay (KINOMEscan)
Chain of human TYK2 (JH2domain-pseudokinase) (P29597 556-888): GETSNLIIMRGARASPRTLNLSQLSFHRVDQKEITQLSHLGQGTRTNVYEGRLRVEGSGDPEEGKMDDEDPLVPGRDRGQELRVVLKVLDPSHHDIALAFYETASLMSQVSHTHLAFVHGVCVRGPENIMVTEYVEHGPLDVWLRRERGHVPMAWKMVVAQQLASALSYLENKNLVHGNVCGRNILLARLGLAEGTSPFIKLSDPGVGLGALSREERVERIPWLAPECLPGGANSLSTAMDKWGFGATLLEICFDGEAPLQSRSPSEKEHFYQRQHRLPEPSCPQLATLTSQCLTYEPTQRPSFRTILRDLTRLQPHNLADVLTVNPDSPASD
Outline: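 Kds, run in duplicate, came from Hill fits (slope fixed at −1) of an 11-point 3-fold dilution series starting at 30,000 nM. Bead-retained TYK2 JH2 (aa G556–D888)–NFkB DBD fusion, DNA-tagged and expressed in HEK293 cells, was read by qPCR after 1 h room-temperature binding in 0.9% DMSO.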

Chain of JAK2 kinase domain (JH1) (O60674 849-1124): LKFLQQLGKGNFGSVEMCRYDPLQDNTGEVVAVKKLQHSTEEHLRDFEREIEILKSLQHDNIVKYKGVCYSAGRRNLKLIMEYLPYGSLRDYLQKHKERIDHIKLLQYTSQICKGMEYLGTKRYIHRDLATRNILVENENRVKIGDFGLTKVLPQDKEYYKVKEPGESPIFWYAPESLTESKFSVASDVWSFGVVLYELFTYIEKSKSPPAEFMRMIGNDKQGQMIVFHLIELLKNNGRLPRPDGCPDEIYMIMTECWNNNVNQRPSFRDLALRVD

CNc1cc(Nc2cccn(-c3cccnc3C)c2=O)nc2c(C(=O)N[C@H]3CC[C@@H]3OC)cnn12 [I-865]
inhibition at 10 µM ([1]; 10 μM compound, 10 μM ATP): < 50%

CNc1cc(Nc2cccn(-c3cncc(F)c3)c2=O)nc2c(C(=O)N[C@@H]3CC[C@H]3OC)cnn12 [I-1085]
inhibition at 10 µM ([1]; 10 μM compound, 10 μM ATP): < 50%

CNc1cc(Nc2cccn(-c3ccccc3F)c2=O)nc2c(C(=O)N[C@H]3CC[C@H]3O)cnn12 [I-939]
Tyk2 JH1% Inhibition @ 10 μM ([2]; 10 μM compound, 10 μM ATP): A (percent inhibition at 10 μM lower than 50) | JAK2 JH1% Inhibition @ 10 μM ([1]; 10 μM compound, 10 μM ATP): A (percent inhibition at 10 μM lower than 50)

CNc1cc(-c2cn(C(C)C)c3ncccc23)nc2c(C(=O)N[C@@H]3C[C@H]3O)cnn12 (stereo in doubt) [I-732, N-((1R,2R)-2-hydroxycyclopropyl)-5-(1-isopropyl-1H-pyrrolo[2,3-b]pyridin-3-yl)-7-(methylamino)pyrazolo[1,5-a]pyrimidine-3-carboxamide]
Tyk2 JH1% Inhibition @ 10 μM ([2]; compound at 10 μM, ATP 10 μM): A (percent inhibition at 10 μM lower than 50) | JAK2 JH1% Inhibition @ 10 μM ([1]; compound at 10 μM, ATP 10 μM): A (percent inhibition at 10 μM lower than 50)

CNc1cc(Nc2cccn(C(C)C)c2=O)nc2c(C(=O)N[C@H]3CCC[C@H](O)C3)cnn12 [I-919, 5-N-(3-hydroxycyclohexyl)-5-((1-isopropyl-2-oxo-1,2-dihydropyridin-3-yl)amino)-7-(methylamino)pyrazolo[1,5-a]pyrimidine-3-carboxamide]
Tyk2 JH1% Inhibition @ 10 μM ([2]; 10 μM compound, 10 μM ATP): A (percent inhibition at 10 μM lower than 50) | JAK2 JH1% Inhibition @ 10 μM ([1]; 10 μM compound, 10 μM ATP): A (percent inhibition at 10 μM lower than 50)

CNc1cc(Nc2cccn([C@@H]3CCCOC3)c2=O)nc2c(C(=O)N[C@@H]3CCC[C@@H](O)C3)cnn12 [I-780]
Tyk2 JH1% Inhibition @ 10 μM ([2]; compound at 10 μM, ATP 10 μM): A (percent inhibition at 10 μM lower than 50) | JAK2 JH1% Inhibition @ 10 μM ([1]; compound at 10 μM, ATP 10 μM): A (percent inhibition at 10 μM lower than 50)

CNc1cc(Nc2cccn([C@H]3CCC[C@H](O)C3)c2=O)nc2c(C(=O)NC3CC3)cnn12 [I-821]
inhibition at 10 µM ([2]; 10 μM compound, 10 μM ATP, read-out: Tyk2 JH1% Inhibition @ 10 μM): < 50% | inhibition at 10 µM ([1]; 10 μM compound, 10 μM ATP): < 50%

CNc1cc(Nc2cccn(-c3nc(C)co3)c2=O)nc2c(C(=O)N[C@H]3CC[C@@H]3O)cnn12 [I-769]
Tyk2 JH1% Inhibition @ 10 μM ([2]; compound at 10 μM, ATP 10 μM): A (percent inhibition at 10 μM lower than 50) | JAK2 JH1% Inhibition @ 10 μM ([1]; compound at 10 μM, ATP 10 μM): A (percent inhibition at 10 μM lower than 50)

CNc1cc(Nc2cccn([C@@H]3CCC[C@H](OC)C3)c2=O)nc2c(C(=O)N[C@@H]3CC[C@H]3O)cnn12 [I-994]
Tyk2 JH1% Inhibition @ 10 μM ([2]; 10 μM compound, 10 μM ATP): A (percent inhibition at 10 μM lower than 50) | JAK2 JH1% Inhibition @ 10 μM ([1]; 10 μM compound, 10 μM ATP): A (percent inhibition at 10 μM lower than 50)

CNc1cc(Nc2cccn(C3CCOCC3)c2=O)nc2c(C(=O)N[C@H]3CC[C@@H]3O)cnn12 [I-596]
Tyk2 JH1% Inhibition @ 10 μM ([2]; compound at 10 μM, ATP 10 μM): A (percent inhibition at 10 μM lower than 50) | JAK2 JH1% Inhibition @ 10 μM ([1]; compound at 10 μM, ATP 10 μM): A (percent inhibition at 10 μM lower than 50)

CNc1cc(Nc2cccc([C@H]3CCCOC3)n2)nc2c(C(=O)N[C@H]3CC[C@@H]3O)cnn12 [I-666]
Tyk2 JH1% Inhibition @ 10 μM ([2]; compound at 10 μM, ATP 10 μM): A (percent inhibition at 10 μM lower than 50) | JAK2 JH1% Inhibition @ 10 μM ([1]; compound at 10 μM, ATP 10 μM): A (percent inhibition at 10 μM lower than 50)

CNc1cc(Nc2cccn(-c3cccnc3C)c2=O)nc2c(C(=O)N[C@@H]3CC[C@H]3OC)cnn12 [I-925]
inhibition at 10 µM ([1]; 10 μM compound, 10 μM ATP): < 50%

CNc1cc(Nc2cccn(-c3ccccc3F)c2=O)nc2c(C(=O)N[C@@H]3CC[C@H]3O)cnn12 [I-940]
Tyk2 JH1% Inhibition @ 10 μM ([2]; 10 μM compound, 10 μM ATP): A (percent inhibition at 10 μM lower than 50) | JAK2 JH1% Inhibition @ 10 μM ([1]; 10 μM compound, 10 μM ATP): A (percent inhibition at 10 μM lower than 50)

CNc1cc(Nc2cccn(C3CCN(CCF)CC3)c2=O)nc2c(C(=O)N[C@H]3CC[C@H]3O)cnn12 [I-896]
Tyk2 JH1% Inhibition @ 10 μM ([2]; 10 μM compound, 10 μM ATP): A (percent inhibition at 10 μM lower than 50) | JAK2 JH1% Inhibition @ 10 μM ([1]; 10 μM compound, 10 μM ATP): A (percent inhibition at 10 μM lower than 50)

CNc1cc(Nc2cccn([C@H]3CC[C@H](OC)CC3)c2=O)nc2c(C(=O)N[C@H]3CC[C@@H]3O)cnn12 [I-636]
Tyk2 JH1% Inhibition @ 10 μM ([2]; compound at 10 μM, ATP 10 μM): A (percent inhibition at 10 μM lower than 50) | JAK2 JH1% Inhibition @ 10 μM ([1]; compound at 10 μM, ATP 10 μM): A (percent inhibition at 10 μM lower than 50)

CNc1cc(Nc2cccn([C@@H]3CCCOC3)c2=O)nc2c(C(=O)N[C@H]3CC[C@@H]3OC)cnn12 [I-903, N-((1S,2S)-2-methoxycyclobutyl)-7-(methylamino)-5-((2-oxo-1-((R)-tetrahydro-2H-pyran-3-yl)-1,2-dihydropyridin-3-yl)amino)pyrazolo[1,5-a]pyrimidine-3-carboxamide]
inhibition at 10 µM ([1]; 10 μM compound, 10 μM ATP): < 50%

CNc1cc(Nc2cccn(-c3cccnc3C)c2=O)nc2c(C(=O)N[C@H]3CC[C@@H]3OC)cnn12 [I-924]
JAK2 JH1% Inhibition @ 10 μM ([1]; 10 μM compound, 10 μM ATP): A (percent inhibition at 10 μM lower than 50)

CNc1cc(Nc2cccn(C3CCOCC3)c2=O)nc2c(C(=O)N[C@H]3CCC[C@]3(C)O)cnn12 (stereo in doubt) [I-1254, N-(2-hydroxy-2-methylcyclopentyl)-7-(methylamino)-5-((2-oxo-1-(tetrahydro-2H-pyran-4-yl)-1,2-dihydropyridin-3-yl)amino)pyrazolo[1,5-a]pyrimidine-3-carboxamide]
Kd [3]: 0.2 to 1 nM

CNc1cc(Nc2cccn([C@H]3CCCOC3)c2=O)nc2c(C(=O)N[C@@H]3CC[C@H]3OC)cnn12 [I-876]
JAK2 JH1% Inhibition @ 10 μM ([1]; 10 μM compound, 10 μM ATP): A (percent inhibition at 10 μM lower than 50)

CNc1cc(Nc2cccnc2OC2CC2)nc2c(C(=O)N[C@H]3COC[C@H]3O)cnn12 [I-520]
Kd [3]: 0.2 to 1 nM

CNc1cc(-c2cn(CCCO)c3ncc(F)cc23)nc2c(C(=O)N[C@H]3CC[C@@H]3OC)cnn12 [I-1298]
Kd [3]: > 10 nM

CNc1cc(Nc2cccn(-c3ccc(C)nc3)c2=O)nc2c(C(=O)N[C@@H]3CCC[C@@H](OC)C3)cnn12 [I-1189]
Kd [3]: < 0.2 nM

CNc1cc(Nc2cccn([C@H]3C[C@@H]3OC)c2=O)nc2c(C(=O)N[C@H]3CC[C@@H]3OC)cnn12 [I-1187]
Kd [3]: < 0.2 nM

CNc1cc(Nc2cccn([C@H]3C[C@@H]3OC)c2=O)nc2c(C(=O)NC3CC3)cnn12 [I-1271]
Kd [3]: < 0.2 nM

CNc1cc(Nc2cccn(C3CCOCC3)c2=O)nc2c(C(=O)N[C@@H]3CC[C@H](O)C3)cnn12 [I-1264]
Kd [3]: 1 to 10 nM

CNc1cc(-c2cn(CCCO)c3ncc(F)cc23)nc2c(C(=O)N[C@@H]3CC[C@H]3OC)cnn12 [I-1229]
Kd [3]: < 0.2 nM

CNc1cc(Nc2cccn(C(C)C)c2=O)nc2c(C(=O)N[C@H]3COC[C@H]3O)cnn12 [I-1302]
Kd [3]: < 0.2 nM

CNc1cc(-c2cn(C(C)C)c3ncc(F)cc23)nc2c(C(=O)N[C@@H]3CC[C@H]3OC)cnn12 [I-1392]
Kd [3]: 0.2 to 1 nM

CNc1cc(Nc2cccn(C3CCOCC3)c2=O)nc2c(C(=O)N[C@@H]3CCC[C@@](C)(OC)C3)cnn12 (stereo in doubt) [I-1274, N-(3-methoxy-3-methylcyclohexyl)-7-(methylamino)-5-((2-oxo-1-(tetrahydro-2H-pyran-4-yl)-1,2-dihydropyridin-3-yl)amino)pyrazolo[1,5-a]pyrimidine-3-carboxamide]
Kd [3]: < 0.2 nM

CNc1cc(Nc2cccn(C(C)C)c2=O)nc2c(C(=O)N[C@@H]3CCC[C@@](C)(O)C3)cnn12 [I-1243]
Kd [3]: 1 to 10 nM

CNc1cc(Nc2cccn(C(C)C)c2=O)nc2c(C(=O)N[C@@H]3CCC[C@@]3(C)O)cnn12 [I-1240]
Kd [3]: < 0.2 nM

CNc1cc(Nc2cccn(C3CCOCC3)c2=O)nc2c(C(=O)N[C@@H]3CCC[C@@H](O)C3)cnn12 [I-1290]
Kd [3]: > 10 nM

CNc1cc(Nc2cccn([C@@H]3C[C@H]3OC)c2=O)nc2c(C(=O)N[C@H]3CC[C@@H]3OC)cnn12 [I-1233]
Kd [3]: 1 to 10 nM

CNc1cc(-c2cn([C@H]3CCC[C@@H]3OC)c3ncccc23)nc2c(C(=O)N[C@@H]3CC[C@@H]3O)cnn12 [I-1224, N-((1R,2S)-2-hydroxycyclobutyl)-5-(1-((1S,2S)-2-methoxycyclopentyl)-1H-pyrrolo[2,3-b]pyridin-3-yl)-7-(methylamino)pyrazolo[1,5-a]pyrimidine-3-carboxamide]
Kd [3]: 1 to 10 nM

CNc1cc(Nc2cccn(C3CCOCC3)c2=O)nc2c(C(=O)N[C@H]3CCC[C@](C)(OC)C3)cnn12 [I-1200]
Kd [3]: 0.2 to 1 nM

CNc1cc(Nc2cccn(-c3cncc(F)c3)c2=O)nc2c(C(=O)N[C@H]3CC[C@@H]3OC)cnn12 [I-1084]
inhibition at 10 µM ([1]; 10 μM compound, 10 μM ATP): < 50%

CNc1cc(Nc2cccn([C@H]3CCC[C@@H](O)C3)c2=O)nc2c(C(=O)N[C@H]3CC[C@@H]3OC)cnn12 [I-1193]
Kd [3]: < 0.2 nM

CNc1cc(Nc2cccn(-c3cnn(C)c3F)c2=O)nc2c(C(=O)N[C@@H]3CC[C@H]3OC)cnn12 [I-1368]
Kd [3]: < 0.2 nM

CNc1cc(Nc2cccn(C3CCOCC3)c2=O)nc2c(C(=O)N[C@@H]3CCC[C@@](C)(OC)C3)cnn12 [I-1201]
Kd [3]: 0.2 to 1 nM

CNc1cc(Nc2cc(C)nc(C)c2)nc2c(C(N)=O)cnn12 [I-13]
Kd [3]: 1 to 10 nM

CNc1cc(Nc2cccn(C(C)C)c2=O)nc2c(C(=O)N[C@@H]3CCC[C@@](C)(O)C3)cnn12 [I-1337]
Kd [3]: < 0.2 nM

CNc1cc(Nc2cccn([C@H]3CCC[C@H]3OC)c2=O)nc2c(C(=O)NC3CC3)cnn12 [I-525]
Kd [3]: > 10 nM

CNc1cc(Nc2cccn(-c3ccccn3)c2=O)nc2c(C(=O)N[C@H]3C[C@@H]3OC)cnn12 [I-1287]
Kd [3]: < 0.2 nM

CNc1cc(Nc2cccn([C@H]3CCCOC3)c2=O)nc2c(C(=O)NC3CC3OC)cnn12 (mixture of isomers) [I-1415, N-(2-methoxycyclopropyl)-7-(methylamino)-5-((2-oxo-1-((S)-tetrahydro-2H-pyran-3-yl)-1,2-dihydropyridin-3-yl)amino)pyrazolo[1,5-a]pyrimidine-3-carboxamide]
Kd [3]: 0.2 to 1 nM

CNc1cc(Nc2cccn([C@@H]3C[C@H]3F)c2=O)nc2c(C(=O)N[C@H]3CC[C@@H]3OC)cnn12 [I-1205]
Kd [3]: < 0.2 nM

CNc1cc(-c2cn([C@@H]3CCCOC3)c3ncccc23)nc2c(C(=O)N[C@@H]3COC[C@@H]3O)cnn12 [I-1184]
Kd [3]: < 0.2 nM
